ChEMBL document CHEMBL5528088, “Design and Synthesis of Cyclolipopeptide Mimics of Dysoxylactam A and Evaluation of the Reversing Potencies against P-Glycoprotein-Mediated Multidrug Resistance” (J Med Chem, 2024)
Counter-ions that a name gives are not always drawn. Activity calls are given as the source filed them. The calls are words filed in the database; no cut-off is given here.

Tests used:
[1] = test system: KBv200; test: Inhibition of Rho-123 uptake in human KBv200 cells at 10 uM incubated for 10 mins by flow cytometry; format: functional, cell-based
[2] = test system: KBv200; test: Inhibition of ADR uptake in human KBv200 cells at 10 uM incubated for 10 mins by flow cytometry; format: functional, cell-based
[3] = test system: KBv200; test: Inhibition of calcein AM uptake in human KBv200 cells at 10 uM incubated for 10 mins by flow cytometry; format: functional, cell-based
[4] = test system: KBv200; test: Reversal effect on P-gp-mediated multidrug resistance in human KBv200 cells assessed as inhibition of cell proliferation incubated for 72 hrs by SRB assay; format: functional, cell-based; conditions: KBv200, 72 h
[5] = test system: NCI/ADR-RES; test: Reversal effect on P-gp-mediated multidrug resistance in human NCI/ADR-RES cells assessed as inhibition of cell proliferation incubated for 72 hrs by SRB assay; format: functional, cell-based
[6] = test system: KBv200; test: Inhibition of cell proliferation in human KBv200 cells assessed as inhibition of VNR at 10 uM incubated for 72 hrs in presence of VNR by SRB assay relative to control; format: functional
[7] = test system: KBv200; test: Reversal fold, ratio of VNR IC50 to VNR IC50 in presence of test compound for human KBv200 cells incubated for 72 hrs by SRB assay; format: functional
[8] = test system: KBv200; test: Cytotoxicity against human KBv200 cells at 10 uM incubated for 72 hrs by SRB assay relative to control; format: functional

SMILES | inhibition at 10 µM [6] [%] | Ratio IC50 [7] | Activity [8] [%] | further results
COc1cc2c(cc1OC)CN(CCc1ccc(NC(=O)c3cc(OC)c(OC)cc3NC(=O)c3cnc4ccccc4c3)cc1)CC2 |  |  |  | inhibition [1]: Active; inhibition [2]: Active; inhibition [3]: Active
COc1cccc2c1C(=O)c1c(O)c3c(c(O)c1C2=O)C[C@@](O)(C(=O)CO)C[C@@H]3O[C@H]1C[C@H](N)[C@H](O)[C@H](C)O1 [DOXORUBICIN HYDROCHLORIDE] |  |  |  | IC50 [4]: 373 nM; IC50 [5]: 26000 nM
CC(=O)O[C@H]1C(=O)[C@@]2(C)[C@H]([C@H](OC(=O)c3ccccc3)[C@]3(O)C[C@H](OC(=O)[C@H](O)[C@@H](NC(=O)c4ccccc4)c4ccccc4)C(C)=C1C3(C)C)[C@]1(OC(C)=O)CO[C@@H]1C[C@@H]2O [PACLITAXEL] |  |  |  | IC50 [4]: 238 nM
CC(C)[C@@H]1NC(=O)CCCCCCCC(=O)N[C@@H](Cc2ccccc2)COC(=O)CCCNC1=O | 26.8 |  |  | 
CC(C)[C@@H]1NC(=O)CCCCCCCC(=O)Nc2cccc(c2)COC1=O | 13.1 |  |  | 
CC(C)[C@@H]1NC(=O)CCCCCCC(=O)N[C@@H](Cc2ccccc2)COC1=O | 9.3 |  |  | 
CC[C@H](C)[C@@H]1NC(=O)[C@H](C(C)C)NC(=O)CCCCCCCC(=O)NCCCCOC1=O | 54 |  |  | 
CC(C)[C@@H]1NC(=O)CCCCCCCCCCCC(=O)N[C@H](Cc2ccccc2)COC1=O | 75.4 | 51.3 | 17 | 
CC[C@H](C)[C@@H]1NC(=O)[C@H](C(C)C)NC(=O)CCCCCCCC(=O)N[C@@H](C(C)C)COC1=O | 63.6 | 1.9 | 18.6 | 
CC(C)[C@@H]1NC(=O)CCCCCCCCCCC(=O)N[C@@H](Cc2ccccc2)COC1=O | 97.6 | 85 | 5 | 
CC[C@H](C)[C@@H]1NC(=O)[C@H](C(C)C)NC(=O)CCCCCCCC(=O)Nc2cccc(c2)COC1=O | 92.3 | 26.8 | 31 | 
CC[C@H](C)[C@H]1COC(=O)[C@H](C(C)C)NC(=O)CCCCCCCC(=O)N1 | 51.2 |  |  | 
CC(C)[C@H]1NC(=O)CCCCCCCCCCCC(=O)N[C@@H](Cc2ccccc2)COC1=O | 68.3 | 57.2 | 16.7 | 
CC[C@H](C)[C@@H]1NC(=O)[C@H](C(C)C)NC(=O)CCCCCC(=O)N[C@@H](Cc2ccccc2)COC1=O | 25.7 |  |  | 
COc1ccc(CCN(C)CCCC(C#N)(c2ccc(OC)c(OC)c2)C(C)C)cc1OC (centres undefined) [VERAPAMIL] | 97.5 | 59.5 | 5 | inhibition [1]: Active; inhibition [2]: inactive; inhibition [3]: inactive
CC(C)[C@@H]1NC(=O)CCCCCCCCCC(=O)N[C@@H](Cc2ccccc2)COC1=O | 93.4 | 55.1 | 1.8 | 
CC(C)[C@@H]1NC(=O)CCCCCCCC(=O)N[C@@H](Cc2ccccc2)COC(=O)Cc2ccc(cc2)NC1=O | 35.9 |  |  | 
CC[C@H](C)[C@@H]1NC(=O)[C@H](C(C)C)NC(=O)CCCCCCCCC(=O)N[C@@H](Cc2ccccc2)COC1=O | 89.7 | 22.2 | 8.6 | 
CC(C)[C@@H]1NC(=O)CCCCCCCC(=O)N[C@@H](Cc2ccccc2)COC(=O)[C@H](C(C)C)NC1=O | 91.1 | 7.9 | 15.8 | 
CC[C@H](C)[C@@H]1NC(=O)[C@H](C(C)C)NC(=O)CCCCCCCC(=O)NCCOC1=O | 51.1 |  |  | 
CC(C)[C@@H]1NC(=O)CCCCCCCC(=O)NC(C)(C)CCOC1=O | 23.1 |  |  | 
CC(C)[C@@H]1NC(=O)CCCCCCCC(=O)N[C@@H](c2ccccc2)COC1=O | 50.2 |  |  | 

SMILES | inhibition at 10 µM [6] [%] | Ratio IC50 [7] | Activity [8] [%] | further results
CC(C)[C@@H]1NC(=O)CCCCCCCC(=O)Nc2cccc(c2)OC1=O | 12.8 |  |  | 
CC(C)C1NC(=O)CCCCCCCC(=O)N[C@@]23C[C@H]4C[C@@H](C2)C[C@](C4)(C3)OC1=O (some centres undefined) | 42.9 |  |  | 
CC(C)[C@@H]1NC(=O)CCCCCCCC(=O)N[C@@H](C(C)(C)C)COC1=O | 53.6 |  |  | 
CC(C)[C@@H]1NC(=O)CCCCCCCC(=O)N[C@@H](Cc2ccccc2)COC(=O)CNC1=O | 11 |  |  | 
CC(C)[C@@H]1NC(=O)CCCCCCCC(=O)N[C@@H](C(C)C)COC1=O | 34.4 |  |  | 
CC(C)[C@@H]1NC(=O)CCCCCC(=O)N[C@@H](Cc2ccccc2)COC1=O | 42.6 |  |  | 
CC(C)[C@@H]1NC(=O)CCCCCCCC(=O)Nc2ccccc2OC1=O | 14.5 |  |  | 
CC[C@H](C)[C@@H]1NC(=O)[C@H](C(C)C)NC(=O)CCCCCCCC(=O)NCC(F)(F)COC1=O | 73.4 | 2.3 | 10.3 | 
CC[C@H](C)[C@@H]1NC(=O)[C@H](C(C)C)NC(=O)CCCCCCCC(=O)Nc2cc(F)cc(c2)COC1=O | 90.7 | 19.3 | 4.6 | 
CC[C@H](C)[C@@H]1NC(=O)[C@H](C(C)C)NC(=O)CCCCCCCC(=O)NCc2cccc(c2)OC1=O | 6.4 |  |  | 
CC(C)[C@@H]1NC(=O)CCCCCCCC(=O)NCC(C)(C)COC1=O | 38.8 |  |  | 
CC(C)[C@@H]1NC(=O)CCCCCCCCC(=O)N[C@@H](Cc2ccccc2)COC1=O | 85.4 | 31.7 | 2.2 | 
CC(C)[C@@H]1NC(=O)CCCCCCCC(=O)N[C@H](c2ccccc2)CCOC1=O | 30.1 |  |  | 
CC(C)[C@@H]1NC(=O)CCCCCCCC(=O)NCCCCOC1=O | 15.7 |  |  | 
CC(C)[C@@H]1NC(=O)CCCCCCCC(=O)N[C@@H](Cc2ccccc2)COC(=O)[C@H](Cc2ccccc2)NC1=O | 88.9 | 2.7 | 0 | 
CC(C)[C@@H]1NC(=O)CCCCCCCC(=O)N[C@@H](C)COC1=O | 20.7 |  |  | 
CC[C@H](C)[C@@H]1NC(=O)[C@H](C(C)C)NC(=O)CCCCCC(=O)Nc2cccc(c2)COC1=O | 14.5 |  |  | 
CC(C)[C@@H]1NC(=O)CCCCCCCC(=O)Nc2ccccc2COC1=O | 29.7 |  |  | 
CC(C)[C@@H]1NC(=O)CCCCCCCC(=O)N[C@@H](Cc2ccccc2)COC(=O)Cc2cccc(c2)NC1=O | 81.6 | 6.5 | 0 | 
CC[C@H](C)[C@@H]1NC(=O)[C@H](C(C)C)NC(=O)CCCCCCCCC(=O)Nc2cccc(c2)COC1=O | 77.6 | 7.3 | 10.9 | 
CC[C@H](C)[C@@H]1NC(=O)[C@H](C(C)C)NC(=O)CCCCCCCC(=O)Nc2ccccc2COC1=O | 90.9 | 7.3 | 19.8 | 
CC(C)C[C@H]1COC(=O)[C@H](C(C)C)NC(=O)CCCCCCCC(=O)N1 | 48.9 |  |  | 

SMILES | inhibition at 10 µM [6] [%] | Ratio IC50 [7] | Activity [8] [%] | further results
CSCC[C@H]1COC(=O)[C@H](C(C)C)NC(=O)CCCCCCCC(=O)N1 | 34 |  |  | 
CC[C@H](C)[C@@H]1NC(=O)[C@H](C(C)C)NC(=O)CCCCCCC(=O)N[C@@H](Cc2ccccc2)COC1=O | 28.7 |  |  | 
CC(C)[C@H]1NC(=O)CCCCCCCCCCCC(=O)N[C@H](Cc2ccccc2)COC1=O | 91.5 | 114.5 | 15.8 | 
CC(C)[C@@H]1NC(=O)CCCCCCCC(=O)N[C@H]2[C@@H]3C[C@@H]4C[C@H]2C[C@@](C4)(C3)OC1=O | 14.1 |  |  | 
CC[C@H](C)[C@@H]1NC(=O)[C@H](C(C)C)NC(=O)CCCCCCCC(=O)N[C@@H]2CC[C@H](C2)OC1=O | 72.2 | 1.4 | 20.5 | 
CCC[C@H]1COC(=O)[C@H](C(C)C)NC(=O)CCCCCCCC(=O)N1 | 46.3 |  |  | 
CC(C)[C@@H]1NC(=O)CCCCCCCC(=O)NCCCOC1=O | 15 |  |  | 
CC(C)[C@@H]1NC(=O)CCOCCOCCOCCC(=O)N[C@@H](Cc2ccccc2)COC1=O | 0.3 |  |  | 
CC(C)[C@@H]1NC(=O)CCCCCCCCCCCCC(=O)N[C@@H](Cc2ccccc2)COC1=O | 97.3 | 99.2 | 4.4 | 
CC[C@H](C)[C@@H]1NC(=O)[C@H](C(C)C)NC(=O)CCCCCCC(=O)Nc2cccc(c2)COC1=O | 83.5 | 10.2 | 4.4 | 
CC(C)[C@@H]1NC(=O)CCCCCCCC(=O)N[C@@H](Cc2ccccc2)COC(=O)[C@H](C)NC1=O | 55.5 |  |  | 
CC(C)[C@@H]1NC(=O)CCCCCCCC(=O)NCCOC1=O | 9.5 |  |  | 
CC[C@H](C)[C@@H]1NC(=O)[C@H](C(C)C)NC(=O)CCCCCCCC(=O)NCCCOC1=O | 44.8 |  |  | 
CC(C)[C@@H]1NC(=O)CCCCCCCC(=O)NCCCCCCOC1=O | 21.1 |  |  | 
CC(C)[C@@H]1NC(=O)CCCCCCCC(=O)N[C@@H](Cc2ccccc2)COC1=O | 80.6 | 26.1 | 0 | 
CC[C@H](C)[C@@H]1NC(=O)[C@H](C(C)C)NC(=O)CCCCCCCC(=O)N[C@@H](Cc2ccccc2)COC1=O | 91.3 | 20.8 | 21.8 | 
CC[C@H](C)[C@@H]1NC(=O)[C@H](C(C)C)NC(=O)CCCCCCCC(=O)N[C@@H](C)COC1=O | 49 |  |  | 
CC(C)[C@@H]1NC(=O)CCCCCCCC(=O)N[C@@H](Cc2ccccc2)COC(=O)CCNC1=O | 12 |  |  | 
CC(C)[C@@H]1NC(=O)CCCCCCCC(=O)N[C@@H](c2ccccc2)[C@@H](c2ccccc2)OC1=O | 14.1 |  |  | 
CC(C)[C@@H]1NC(=O)CCCCCCCC(=O)NCCCCCOC1=O | 26.6 |  |  | 
